Values quoted from earlier work, collected in patent US20040116402A1, “Superoxide dismutase mimics for the treatment of ocular disorders and diseases” (priority 2002, published 2004).

Columns and labels:
[1] = tested on: autoimmune diabetes by a diabetogenic T-cell clone; conditions: in a cloned cell (diabetogenic T-cell clone adoptive transfer)

CC1(C)CC(O)CC(C)(C)N1[O] [4-hydroxy-2,2,6,6-tetramethylpiperidine-1-oxyl]
light-induced retinal damage (albino rats): inhibited light-induced retinal damage

CCN1C=CC=C/C1=C1/C2=NC(=C(c3cccc[n+]3CC)C3=NC(=C(c4cccc[n+]4CC)c4ccc([n-]4)C(c4cccc[n+]4CC)=C4C=CC1=N4)C=C3)C=C2.[Cl-].[Cl-].[Cl-].[Cl-].[Cl-].[Mn+3] [AEOL10113]
onset of diabetes [1]: delay the onset of diabetes

[Cl-].[Cl-].[Mn+2].c1cc2nc(c1)CN[C@@H]1CCCC[C@H]1NCCN[C@@H]1CCCC[C@H]1NC2 [M40403]
vascular and neural dysfunction (diabetic rats): prevented vascular and neural dysfunction
